Paper PMC3409115, “Diverse Inhibitor Chemotypes Targeting Trypanosoma cruzi CYP51” (PLoS Neglected Tropical Diseases, 2012)
Entries after “also recorded” stand apart in the source; their conditions may differ. Read-outs that look alike come from different tables or passages of the source.

How the values were obtained:
[1] = system: T. cruzi trypomastigote strain CAI/72 in C2C12 myoblasts; test: Trypanocidal assay; assay type: cell-based, Trypanosoma cruzi; settings: 14 days treatment, then one week compound-free
Procedure: Compounds cross-validated with low EC50 against T. cruzi infected cells were further evaluated to determine the “cidal” concentration at which host cells are effectively cured, using the protocol adapted from Engel et al 1998 [30]. To allow long term treatment and avoid culture overgrowth, C2C12 myoblasts were seeded at low density in 96 well plates (10^3 cells/well) and cultured with DMEM H-21 medium supplemented with low FBS concentration (1%), 25 mM HEPES, 2 mM L-glutamine, 100 U/ml penicillin and 100 µg/ml streptomycin. The cells were infected with T. cruzi trypomastigote strain CAI/72 (5 parasites/cell) for 24 h and treated with 0, 0.04, 0.12, 0.37, 1.10, 3.30 or 10 µM test compounds in 100 µl of medium for 14 days. During the course of treatment, medium supplemented with test compounds was replaced every 72 h. After 14 days, drug pressure was withdrawn and incubation continued in the compound-free medium for another week, during which cultures were monitored for reappearance of T. cruzi trypomastigotes in the supernatant.

[2] = system: sterol biosynthesis in T. cruzi amastigotes; test: Lipid analysis of T. cruzi amastigotes (GC-MS of membrane sterols); assay type: cell-based, Trypanosoma cruzi; settings: amastigotes in C2C12 myoblasts, 24 h drug treatment, concentrations 5x below cidal; posaconazole 100 nM
Procedure: To grow intracellular amastigotes for lipid analysis, C2C12 mouse skeletal myoblasts (4×10^6 cells) cultured in 150 cm^2 flasks as described above were infected with 80×10^6 trypomastigotes for 24 h. The cultures were treated with test compounds 72 h post-infection at concentrations 5× below cidal to avoid completely killing the parasites. Posaconazole at 100 nM was used as a positive control. […] Cells were harvested 96 h post-infection and after 24 h of drug treatment. Cell detachment was initiated by brief treatment with 10 ml of 0.25% trypsin in PBS, followed promptly by replacement with 10 ml of fresh media containing FBS. Harvested cells were washed 3× with 25 ml of PBS to remove FBS and released trypomastigotes. The suspension of infected cells was then transferred to a glass tube and centrifuged at 2000 rpm for 5 min. After washing with PBS, 2 ml of chloroform-methanol solution (2∶1 ratio) was added to re-suspend the cell pellet. Organic solvents were then evaporated under N2 flow, allowing the pellet to dry.
For total lipid extraction, the dry cell pellet was treated with 2 ml chloroform for 24 h. Polar molecules were removed by washing the organic phase 3× with 3 ml water. The organic phase containing the sterols was subsequently dried on an evaporator under N2 flow. The lipids were re-suspended in 2 ml of chloroform-methanol (9∶1 ratio), washed again 3× with 3 ml water, dried under N2 flow and re-suspended in acetonitrile. After an additional wash 3× with 3 ml water, the acetonitrile was dried under an N2 stream. Extracted dry sterols were re-dissolved in hexane and derivatized with N,N-bis(trimethylsilyl)-2,2,2-trifluoroacetamide (BSTFA) (Pierce) by incubating at 37°C for at least 2 hours. Sterols as their trimethylsilyl (TMS) derivatives were analyzed by gas chromatography and mass spectrometry (GC-MS). GC-MS analysis and lipid identification were performed as described previously.

T. cruzi CYP51 = molecular target: T1, T. cruzi CYP51 (Trypanosoma cruzi, UniProt Q7Z1V1); test: Low throughput UV-vis binding assay; settings: for Binding to CYP51 by UV-vis titration (in words): 0.5 µM CYP51
T1 construct: had the first 21 residues upstream of K22 replaced with the fragment MAKKKKK; His6 (C); made in house
Procedure: Hit validation in the low throughput UV-vis binding assay was performed according to a previously published but somewhat modified protocol. UV-vis absorption spectra were recorded on a Cary scanning spectrophotometer (Varian) in the 1-cm path length quartz cuvette at 23°C in 100 mM potassium phosphate buffer, pH 7.5, containing 10% glycerol, with CYP51 concentration of 0.5 µM. Compound solutions used for titration were prepared in DMSO at 100 µM and added in 2-µl aliquots to each 3 ml sample using a P2 pipetman (Gilson). Binding affinity of hits was estimated using the quadratic tight-binding equation [27]: […]
where Aobs is the absorption shift determined at any ligand concentration; Amax is the maximal absorption shift obtained at saturation; KD is dissociation constant for the inhibitor-enzyme complex; S is the ligand concentration; Et is the total enzyme concentration.

T1 sequence (Q7Z1V1 15-481, looked up, natural form): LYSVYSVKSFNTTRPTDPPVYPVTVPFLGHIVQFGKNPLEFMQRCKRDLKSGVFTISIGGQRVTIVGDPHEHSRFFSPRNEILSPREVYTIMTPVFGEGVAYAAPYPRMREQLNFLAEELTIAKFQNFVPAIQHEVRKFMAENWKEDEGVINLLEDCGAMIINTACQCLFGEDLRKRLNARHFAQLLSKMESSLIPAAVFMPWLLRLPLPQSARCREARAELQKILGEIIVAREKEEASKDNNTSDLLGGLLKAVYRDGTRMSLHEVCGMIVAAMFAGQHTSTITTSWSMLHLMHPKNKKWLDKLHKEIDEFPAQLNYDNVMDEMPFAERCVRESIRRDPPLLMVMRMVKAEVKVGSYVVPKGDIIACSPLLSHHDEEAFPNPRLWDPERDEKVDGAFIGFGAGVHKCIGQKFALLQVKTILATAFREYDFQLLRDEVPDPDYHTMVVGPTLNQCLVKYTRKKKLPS

SMILES | Trypanocidal concentration [1] [nM] | Effect on membrane sterol composition by GC-MS [2] | Binding to CYP51 by UV-vis titration (in words) (T. cruzi CYP51) | Kd (T. cruzi CYP51; UV-vis titration, 0.5 µM CYP51, quadratic tight-binding equation, lower limit of method ~5 nM, read-out: KD) [nM] | Kd (T. cruzi CYP51) [nM]
Brc1ccccc1OCCCCCCn1ccnc1 [Compound 1] | 40 | lanosterol (f) and eburicol (h) dominated the GC-MS traces; also recorded: fecosterol (e) was completely inhibited; also recorded: suppressed sterol biosynthesis in T. cruzi amastigotes more efficiently than posaconazole | at least low nanomolar binding affinity | ≤ 5 | –
O=C(c1ccc(Cl)cc1)C(Oc1ccc(Cl)cc1)n1cncn1 (centres unmarked) [Compound 13, 2-(4-chlorophenoxy)-1-(4-chlorophenyl)-2-(1H-1,2,4-triazol-1-yl)ethanone] | 2500 | present in amounts comparable to those of 14-demethylated products; also recorded: increase in lanosterol and eburicol precursors and a concomitant decline in episterol, fecosterol and other 14-demethylated intermediates | binds and saturates CYP51 at equimolar 0.5 µM concentrations | – | ≤ 5
